Data: ChEMBL document CHEMBL1201862, “PubChem BioAssay data set” (2004)
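Results reflect a 48-hour exposure of cells in 96-well plates to compound at five concentrations. GI50 marks 50% less growth.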 Active and inactive are the calls of the source. Cut-off read from the data, not from the text of the source: active = GI50 up to about 1.1 µM and inactive = higher.

Legend:
Test in all cases: NCI tumour cell line growth inhibition, 48 h
T47D = system: T47D
ACHN = system: ACHN
MCF7 = system: MCF7
MDA-MB-435 = system: MDA-MB-435
NCI-H226 = system: NCI-H226
SN12C = system: SN12C
SK-MEL-5 = system: SK-MEL-5
SK-MEL-28 = system: SK-MEL-28
NCI-H23 = system: NCI-H23
DU-145 = system: DU-145
SK-OV-3 = system: SK-OV-3
HOP-62 = system: HOP-62
OVCAR-5 = system: OVCAR-5
OVCAR-8 = system: OVCAR-8
SNB-19 = system: SNB-19
SF-268 = system: SF-268
HT-29 = system: HT-29
OVCAR-3 = system: OVCAR-3
SW-620 = system: SW-620
CCRF-CEM = system: CCRF-CEM
EKVX = system: EKVX
IGROV-1 = system: IGROV-1
MDA-N = system: MDA-N
MOLT-4 = system: MOLT-4
HCT-116 = system: HCT-116
786-0 = system: 786-0
A498 = system: A498
U-251 = system: U-251
TK-10 = system: TK-10
SK-MEL-2 = system: SK-MEL-2
M14 = system: M14
RXF 393 = system: RXF 393
NCI/ADR-RES = system: NCI/ADR-RES
K562 = system: K562
SF-295 = system: SF-295
BT-549 = system: BT-549
A549 = system: A549
UACC-62 = system: UACC-62
COLO 205 = system: COLO 205
MDA-MB-231 = system: MDA-MB-231
UO-31 = system: UO-31
Hs-578T = system: Hs-578T
UACC-257 = system: UACC-257
HCC 2998 = system: HCC 2998
SNB-75 = system: SNB-75
SF-539 = system: SF-539
KM12 = system: KM12
OVCAR-4 = system: OVCAR-4
NCI-H460 = system: NCI-H460
LOX IMVI = system: LOX IMVI
HCT-15 = system: HCT-15
NCI-H522 = system: NCI-H522
HOP-92 = system: HOP-92
CAKI-1 = system: CAKI-1
Malme-3M = system: Malme-3M
PC-3 = system: PC-3
RPMI-8226 = system: RPMI-8226
SR = system: SR

For `CC(C)(C)[Si](C)(C)OCCc1ccccc1C1CC2(S(=O)(=O)c3ccccc3)ON1CC2S(=O)(=O)c1ccccc1` (stereo not drawn), the GI50 (T47D) was < 0.01 µM (active), the GI50 (ACHN) was > 100 µM (inactive) and the GI50 (MCF7) was 60.5 µM (inactive). For the same compound, the GI50 (MDA-MB-435) was > 100 µM (inactive), the GI50 (NCI-H226) was > 100 µM (inactive) and the GI50 (SN12C) was > 100 µM (inactive). For the same compound, the GI50 (SK-MEL-5) was > 100 µM (inactive), the GI50 (SK-MEL-28) was > 100 µM (inactive) and the GI50 (NCI-H23) was > 100 µM (inactive). For the same compound, the GI50 (DU-145) was > 100 µM (inactive), the GI50 (SK-OV-3) was > 100 µM (inactive) and the GI50 (HOP-62) was > 100 µM (inactive). The GI50 (OVCAR-5) was > 100 µM (inactive), the GI50 (OVCAR-8) was > 100 µM (inactive) and the GI50 (SNB-19) was > 100 µM (inactive). For the same compound, the GI50 (SF-268) was > 100 µM (inactive), the GI50 (HT-29) was > 100 µM (inactive) and the GI50 (OVCAR-3) was > 100 µM (inactive). For the same compound, the GI50 (SW-620) was > 100 µM (inactive), the GI50 (CCRF-CEM) was > 100 µM (inactive) and the GI50 (EKVX) was > 100 µM (inactive). For the same compound, the GI50 (IGROV-1) was > 100 µM (inactive), the GI50 (MDA-N) was > 100 µM (inactive) and the GI50 (MOLT-4) was > 100 µM (inactive). For the same compound, the GI50 (HCT-116) was > 100 µM (inactive), the GI50 (786-0) was > 100 µM (inactive) and the GI50 (A498) was > 100 µM (inactive). For the same compound, the GI50 (U-251) was > 100 µM (inactive), the GI50 (TK-10) was > 100 µM (inactive) and the GI50 (SK-MEL-2) was > 100 µM (inactive). The GI50 (M14) was > 100 µM (inactive), the GI50 (RXF 393) was > 100 µM (inactive) and the GI50 (NCI/ADR-RES) was > 100 µM (inactive). For the same compound, the GI50 (K562) was > 100 µM (inactive), the GI50 (SF-295) was > 100 µM (inactive) and the GI50 (BT-549) was > 100 µM (inactive). For the same compound, the GI50 (A549) was > 100 µM (inactive), the GI50 (UACC-62) was > 100 µM (inactive) and the GI50 (COLO 205) was > 100 µM (inactive). The GI50 (MDA-MB-231) was > 100 µM (inactive), the GI50 (UO-31) was > 100 µM (inactive) and the GI50 (Hs-578T) was > 100 µM (inactive). For the same compound, the GI50 (UACC-257) was > 100 µM (inactive), the GI50 (HCC 2998) was > 100 µM (inactive) and the GI50 (SNB-75) was > 100 µM (inactive). For the same compound, the GI50 (SF-539) was > 100 µM (inactive), the GI50 (KM12) was > 100 µM (inactive) and the GI50 (OVCAR-4) was > 100 µM (inactive). The GI50 (NCI-H460) was > 100 µM (inactive).

For `COc1ccc(C2C3COc4ccccc4C3=NN2c2ccccc2)cc1` (stereo not drawn), the GI50 (T47D) was 48.8 µM (inactive), the GI50 (LOX IMVI) was > 100 µM (inactive) and the GI50 (ACHN) was > 100 µM (inactive). The GI50 (MCF7) was 63.8 µM (inactive), the GI50 (MDA-MB-435) was 62.4 µM (inactive) and the GI50 (NCI-H226) was > 100 µM (inactive). For the same compound, the GI50 (SK-MEL-5) was > 100 µM (inactive), the GI50 (NCI-H23) was > 100 µM (inactive) and the GI50 (HCT-15) was > 100 µM. The GI50 (SK-OV-3) was > 100 µM (inactive), the GI50 (HOP-62) was > 100 µM (inactive) and the GI50 (NCI-H522) was > 100 µM (inactive). For the same compound, the GI50 (OVCAR-5) was > 100 µM (inactive), the GI50 (OVCAR-8) was > 100 µM (inactive) and the GI50 (SNB-19) was > 100 µM (inactive). For the same compound, the GI50 (SF-268) was > 100 µM (inactive), the GI50 (HT-29) was 87.1 µM (inactive) and the GI50 (OVCAR-3) was > 100 µM (inactive). For the same compound, the GI50 (SW-620) was > 100 µM (inactive), the GI50 (CCRF-CEM) was > 100 µM (inactive) and the GI50 (EKVX) was > 100 µM (inactive). The GI50 (IGROV-1) was > 100 µM (inactive), the GI50 (MDA-N) was > 100 µM (inactive) and the GI50 (MOLT-4) was 92.5 µM (inactive). The GI50 (HCT-116) was > 100 µM (inactive), the GI50 (786-0) was > 100 µM (inactive) and the GI50 (HOP-92) was > 100 µM (inactive). For the same compound, the GI50 (A498) was > 100 µM (inactive), the GI50 (U-251) was > 100 µM (inactive) and the GI50 (TK-10) was > 100 µM (inactive). The GI50 (SK-MEL-2) was > 100 µM (inactive), the GI50 (CAKI-1) was > 100 µM (inactive) and the GI50 (Malme-3M) was > 100 µM (inactive). For the same compound, the GI50 (M14) was > 100 µM (inactive), the GI50 (RXF 393) was > 100 µM (inactive) and the GI50 (NCI/ADR-RES) was > 100 µM (inactive). The GI50 (K562) was > 100 µM (inactive), the GI50 (SF-295) was > 100 µM (inactive) and the GI50 (PC-3) was 57.7 µM (inactive). For the same compound, the GI50 (BT-549) was > 100 µM (inactive), the GI50 (A549) was > 100 µM (inactive) and the GI50 (UACC-62) was > 100 µM (inactive). The GI50 (COLO 205) was > 100 µM (inactive), the GI50 (MDA-MB-231) was > 100 µM (inactive) and the GI50 (UO-31) was > 100 µM (inactive). For the same compound, the GI50 (Hs-578T) was > 100 µM (inactive), the GI50 (UACC-257) was > 100 µM (inactive) and the GI50 (SNB-75) was > 100 µM (inactive). For the same compound, the GI50 (SF-539) was > 100 µM (inactive), the GI50 (KM12) was > 100 µM (inactive) and the GI50 (OVCAR-4) was > 100 µM (inactive). For the same compound, the GI50 (NCI-H460) was 94.4 µM (inactive), the GI50 (RPMI-8226) was > 100 µM (inactive) and the GI50 (SR) was 31.6 µM (inactive).
